Here are results for 1 molecule from BindingDB's records for patent US10053471 (Boehringer Ingelheim International, 2018).

This experiment concerns the target 5'-AMP-activated protein kinase catalytic subunit alpha-1/subunit beta-1/subunit gamma-1 (Homo sapiens, UniProt P54619+Q13131+Q9Y478). In words: in vitro AMPK activation assays. The following applies: pH 7; 25 °C. The procedure: The test compounds were dissolved in 100% DMSO at a concentration of 10 mM and in a first step diluted in DMSO to a concentration of 5 mM, followed by serial dilution steps in 100% DMSO. Dilution factor and number of dilution steps may vary. Typically 8 different concentrations by 1:5 dilutions were prepared, further dilutions of the substances were carried out with test buffer (20 mM Hepes (pH 7.0), 15 mM MgCl2, 0.025% BSA, 0.01% Brij 35) until a concentration was reached which was 5 times above the final test concentration. 2 μl aliquots of these dilutions were transferred into a 384-well Optiplate (Perkin Elmer, #6007290). Typically the start concentration for serial dilutions in the assay is 10 μM. Typically AMPK was diluted to 25 μg/ml in the test buffer and 4 μl of this dilution were used in the kinase test (final concentration of AMPK is 10 μg/ml in a total volume of 10 μl for the kinase reaction). Kinase concentrations may vary depending on activity of the preparation batches. […] The plates were read with an Envision Luminescence Reader (Perkin-Elmer).

Usually EC50 stands for the concentration that produces a half-maximal response.

Structures are written as SMILES.

Sequence of 5'-AMP-activated protein kinase catalytic subunit alpha-1/subunit beta-1/subunit gamma-1 (Q9Y478 whole entry): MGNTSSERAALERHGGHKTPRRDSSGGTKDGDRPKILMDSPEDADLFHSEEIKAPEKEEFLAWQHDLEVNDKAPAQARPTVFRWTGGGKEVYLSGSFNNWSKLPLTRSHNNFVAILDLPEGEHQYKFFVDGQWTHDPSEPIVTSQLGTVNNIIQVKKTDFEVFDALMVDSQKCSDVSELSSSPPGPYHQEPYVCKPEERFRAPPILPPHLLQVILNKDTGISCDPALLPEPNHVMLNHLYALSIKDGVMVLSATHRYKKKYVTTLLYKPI
Sequence of 5'-AMP-activated protein kinase catalytic subunit alpha-1/subunit beta-1/subunit gamma-1 (P54619 whole entry): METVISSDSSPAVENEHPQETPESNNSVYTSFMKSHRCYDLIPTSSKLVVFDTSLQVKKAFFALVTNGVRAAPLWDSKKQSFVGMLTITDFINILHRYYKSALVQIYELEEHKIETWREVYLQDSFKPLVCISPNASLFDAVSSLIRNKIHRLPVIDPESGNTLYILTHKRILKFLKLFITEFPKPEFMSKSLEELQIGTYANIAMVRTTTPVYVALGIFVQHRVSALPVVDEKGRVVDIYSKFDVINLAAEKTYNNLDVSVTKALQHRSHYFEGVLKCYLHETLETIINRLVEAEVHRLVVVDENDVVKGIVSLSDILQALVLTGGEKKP
Sequence of 5'-AMP-activated protein kinase catalytic subunit alpha-1/subunit beta-1/subunit gamma-1 (Q13131 whole entry): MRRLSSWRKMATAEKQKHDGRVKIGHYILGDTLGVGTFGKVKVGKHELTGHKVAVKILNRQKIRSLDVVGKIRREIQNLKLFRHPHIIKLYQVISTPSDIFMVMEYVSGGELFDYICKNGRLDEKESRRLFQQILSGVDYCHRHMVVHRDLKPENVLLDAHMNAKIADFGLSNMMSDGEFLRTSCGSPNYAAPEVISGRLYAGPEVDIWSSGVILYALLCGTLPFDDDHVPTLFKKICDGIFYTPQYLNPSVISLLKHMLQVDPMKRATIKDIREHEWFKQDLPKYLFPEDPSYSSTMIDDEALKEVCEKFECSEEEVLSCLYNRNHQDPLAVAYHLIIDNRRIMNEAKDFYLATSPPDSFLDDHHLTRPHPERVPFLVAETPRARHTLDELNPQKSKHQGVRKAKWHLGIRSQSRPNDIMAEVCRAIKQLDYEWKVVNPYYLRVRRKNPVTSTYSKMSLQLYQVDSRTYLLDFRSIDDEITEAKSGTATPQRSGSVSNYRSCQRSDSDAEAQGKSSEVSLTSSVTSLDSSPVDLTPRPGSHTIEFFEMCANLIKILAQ

Turning to `CS(=N)(=O)c1ccc(-c2ccc(-c3nc4[nH]c(O[C@@H]5CO[C@H]6[C@@H]5OC[C@H]6O)nc4cc3Cl)cc2)c(F)c1` (stereo partly specified) [US10053471, 13], the midpoint of the response, the EC50, lay at 71 nM.
